Source: paper PMC7265429, “Characterization of a new small-molecule inhibitor of HDAC6 in glioblastoma” (Cell Death & Disease, 2020)

System: GNS166 cells
Assay: Microarray whole-transcriptome gene expression analysis
Format: cell-based, human
Conditions: DMSO vs SAHA, downregulated
Procedure: Whole-transcriptome analysis was performed from 300 ng of RNA using HuGene-2_0-st-v1 expression array (Affymetrix), which covers 48,226 transcripts. Raw data were first checked for quality purposes through the Affymetrix® Expression Console™ Software v1.4.1 and TAC software v4.0. Then, data were normalized using the Robust Multi-array Average (RMA) and analyzed by Limma tool. Probesets with FDR-corrected p-values smaller than 0.05 were selected. Functional enrichment on Gene Ontology (GO) biological processes was performed on a smaller subset of the differentially expressed genes (corrected p-value < 0.001) by means of Broad Institute GSEA. […] The data that support this study have been deposited in NCBI´s Gene Expression Omnibus and are accessible through GEO series accession number GSE143887.

## O=C(CCCCCCC(=O)Nc1ccccc1)NO [SAHA, Suberoylanilide hydroxamic acid]
Transcript TC0700011518.hg.1
  logFC GTF2IRD2: -2.067
Transcript TC0700013363.hg.1
  logFC GBAS: -1.318
Transcript TC0700013468.hg.1
  logFC NDUFB2: -1.3
Transcript TC0800006692.hg.1
  logFC MSRA: -1.45
Transcript TC0800009239.hg.1
  logFC CYC1: -1.06
Transcript TC0800009970.hg.1
  logFC PBK: -1.706
Transcript TC0800010252.hg.1
  logFC ANK1: -2.257
Transcript TC0800010553.hg.1
  logFC NSMAF: -1.838
Transcript TC0800010708.hg.1
  logFC CPA6: -2.501
Transcript TC0800011646.hg.1
  logFC HAS2: -1.946
Transcript TC0900007494.hg.1
  logFC FXN: -0.9868
Transcript TC0900008716.hg.1
  logFC NEK6: -1.139
Transcript TC0900009948.hg.1
  logFC ARHGEF39: -1.156
Transcript TC0900011200.hg.1
  logFC KIAA0368: -1.9364
Transcript TC0900011220.hg.1
  logFC SUSD1: -2.309
Transcript TC0900011388.hg.1
  logFC PHF19: -2.061
Transcript TC0900011626.hg.1
  logFC CIZ1: -1.331
Transcript TC0900011709.hg.1
  logFC TOR1A: -1.605
Transcript TC0900011864.hg.1
  logFC VAV2: -1.105
Transcript TC1000007986.hg.1
  logFC ANAPC16: -1.273
Transcript TC1000008955.hg.1
  logFC PLEKHS1: -2.168
Transcript TC1000009844.hg.1
  logFC SEPHS1: -1.411
Transcript TC1000010256.hg.1
  logFC EPC1: -1.207
Transcript TC1000010843.hg.1
  logFC PBLD: -1.5
Transcript TC1000010990.hg.1
  logFC DNAJB12: -1.539
Transcript TC1000011993.hg.1
  logFC PRDX3: -0.8845
Transcript TC1000012235.hg.1
  logFC MKI67: -1.335
Transcript TC1000012496.hg.1
  logFC AS3MT: -1.5939
Transcript TC1100006879.hg.1
  logFC PARVA: -1.499
Transcript TC1100008236.hg.1
  logFC CCND1: -0.9478
Transcript TC1100008514.hg.1
  logFC TSKU: -1.319
Transcript TC1100009561.hg.1
  logFC NTM: -2.198
Transcript TC1100009657.hg.1
  logFC IFITM3: -1.487
Transcript TC1100011259.hg.1
  logFC FOSL1: -2.603
Transcript TC1100012957.hg.1
  logFC TRIM22: -3.047
Transcript TC1100013111.hg.1
  logFC CHEK1: -0.9424
Transcript TC1100013184.hg.1
  logFC CDCA5: -1.4587
Transcript TC1100013192.hg.1
  logFC CLCF1: -1.898
Transcript TC1200006520.hg.1
  logFC TSPAN9: -1.358
Transcript TC1200006561.hg.1
  logFC RAD51AP1: -1.95
Transcript TC1200006656.hg.1
  logFC C12orf57: -1.605
Transcript TC1200007707.hg.1
  logFC ESPL1: -1.687
Transcript TC1200007822.hg.1
  logFC IKZF4: -1.324
Transcript TC1200009621.hg.1
  logFC FOXM1: -2.01
Transcript TC1200009759.hg.1
  logFC CDCA3: -2.054
Transcript TC1200009834.hg.1
  logFC MFAP5: -1.349
Transcript TC1200009919.hg.1
  logFC TAS2R10: -2.012
Transcript TC1200010633.hg.1
  logFC MCRS1: -1.188
Transcript TC1200011873.hg.1
  logFC MMAB: -1.164
Transcript TC1200012105.hg.1
  logFC WSB2: -1.343
Transcript TC1200012143.hg.1
  logFC CIT: -1.292
Transcript TC1200012584.hg.1
  logFC TAPBPL: -1.336
Transcript TC1200012755.hg.1
  logFC PRR4: -1.713
Transcript TC1200012808.hg.1
  logFC R3HDM2: -1.233
Transcript TC1300007167.hg.1
  logFC PHF11: -1.841
Transcript TC1300007870.hg.1
  logFC ITGBL1: -1.539
Transcript TC1300009088.hg.1
  logFC DIAPH3: -1.66
Transcript TC1300009924.hg.1
  logFC GAS6: -1.149
Transcript TC1400007404.hg.1
  logFC RHOJ: -2.1714
Transcript TC1400008476.hg.1
  logFC BTBD6: -1.003
Transcript TC1400010715.hg.1
  logFC AJUBA: -1.776
Transcript TC1500006785.hg.1
  logFC ARHGAP11B: -1.512
Transcript TC1500007392.hg.1
  logFC CCNB2: -2.179
Transcript TC1500007510.hg.1
  logFC TPM1: -1.243
Transcript TC1500007699.hg.1
  logFC KIF23: -1.664
Transcript TC1500008341.hg.1
  logFC MAN2A2: -1.396
Transcript TC1500009830.hg.1
  logFC LCTL: -1.502
Transcript TC1500010463.hg.1
  logFC PRC1: -1.211
Transcript TC1500010707.hg.1
  logFC ARHGAP11B: -1.7076
Transcript TC1600007113.hg.1
  logFC C16orf62: -1.881
Transcript TC1600007235.hg.1
  logFC PLK1: -1.599
Transcript TC1600007992.hg.1
  logFC ARL2BP: -1.083
Transcript TC1600010168.hg.1
  logFC SHCBP1: -1.56
Transcript TC1700006709.hg.1
  logFC XAF1: -1.919
Transcript TC1700006758.hg.1
  logFC MPDU1: -1.716
Transcript TC1700007454.hg.1
  logFC GOSR1: -1.325
Transcript TC1700007557.hg.1
  logFC CCL2: -1.8857
Transcript TC1700008263.hg.1
  logFC ABCC3: -2.846
Transcript TC1700009043.hg.1
  logFC BIRC5: -1.565
Transcript TC1700009679.hg.1
  logFC AURKB: -1.67
Transcript TC1700009888.hg.1
  logFC CENPV: -1.862
Transcript TC1700010599.hg.1
  logFC MED24: -1.405
Transcript TC1700010618.hg.1
  logFC TOP2A: -1.269
Transcript TC1700010841.hg.1
  logFC CCDC43: -0.9856
Transcript TC1700012078.hg.1
  logFC ALYREF: -1.381
Transcript TC1700012380.hg.1
  logFC SPAG5: -2.042
Transcript TC1800009245.hg.1
  logFC SERPINB8: -1.496
Transcript TC1900006628.hg.1
  logFC NFIC: -1.238
Transcript TC1900007208.hg.1
  logFC SYDE1: -1.288
